Here are results for one molecule from article PMC7955127, “Preclinical small molecule WEHI-7326 overcomes drug resistance and elicits response in patient-derived xenograft models of human treatment-refractory tumors” (Cell Death & Disease, 2021).

One test has as its system H1437. The experiment in a line: Cell growth inhibition assay, H1437. Format: cell-based. To be noted: Homo sapiens, NCI-H1437; H1437, non-small cell lung carcinoma; 72 h viability assay, CellTiterGlo; mean of 3 ± SEM; read-out: IC50 (inhibition of cellular proliferation). On the procedure: Cells were plated at a density of between 500 to 5000 cells per well for adherent cell lines depending on doubling time, and 15,000 cells per well for lymphoblastic leukemia cell lines, in a 96-well plate in 200 μl of growth media. Plates were incubated overnight at 37 °C before adding the inhibitors. Inhibitors were serially diluted from the stock solutions in complete medium and added to the cells. […] Cell viability was assessed by the AlamarBlue (Invitrogen) or CellTiterBlue/Glo (Promega) method according to manufacturer’s instructions. The curve fits and IC50 values were generated in PRISM (GraphPad, San Diego, CA).

Another test deals with SW480. The experiment in a line: Cell cycle analysis (G2/M arrest, PI staining, flow cytometry), SW480. It counts as cell-based, human. On the procedure:
Fig. 2 Antimitotic activity of WEHI-7326: cancer cell lines and effects on tubulin polymerization. a Dose-dependent antimitotic activity of WEHI-7326, nocodazol and taxol in tumor cell lines SW480 (colorectal) and MDA-MB-231 (breast). Data are presented as percentage of cells in G2/M after overnight incubation with increasing concentrations of inhibitors and PI staining followed by flow cytometry analysis. Mean average of 3 independent experiments ±SEM. b EC50 values (nM) for G2/M arrest on SW480 and MDA-MB-231 cell lines, given as mean average of 3 independent experiments ±SEM. c Western blot analysis of mitotic arrest in SW480 and MDA-MB-231 cells treated with EC50 concentrations of WEHI-7326 or Paclitaxel as marked by expression of phosho-S10 Histone H3 (p-HH3 S10), at different timepoints post treatment. Expression of β-actin provided as loading control. d Cell cycle analysis of LIM1899 cells 72 h post treatment with increasing concentrations of WEHI-7326 as measured by PI staining for DNA content followed by flow cytometry analysis. Sub-G1 represents apoptotic fractions and >4 N cell fractions of mitotic slippage. e Immunofluorescence confocal microscopy of tubulin polymerization in SW480 cells treated by various agents. Cells were incubated for 24 h with control (0.1% DMSO), nocodazole (1 μM), paclitaxel (1 μM), myoseverin B (1 μM) or WEHI-7326 (1 μM). Cells were fixed and stained with β-tubulin antibody (green) and DAPI (DNA; blue) and phalloidin (actin, red). Shown are single confocal sections and enlarged areas (3x) to highlight changes in microtubule network; scale bar = 20 μm. Representative images from 2 independent experiments. f Cellular tubulin polymerization assay in cells: SW480 cells were incubated overnight with paclitaxel, myoseverin B or WEHI-7326, then processed to detect fractions of polymerized (P) and soluble (S) tubulin by western blot analysis. Representative blot of 3 independent experiments. g Tubulin polymerization was assessed in vitro over time using a fluorescence-based tubulin polymerization assay (BK011P). Tubulin was incubated with control (DMSO), paclitaxel (3 μM), nocodazole (15 μM) and WEHI-7326 at indicated concentrations (in DMSO). Polymerization was measured by excitation at 360 nm and emission at 420 nm. Representative graph of 3 independent experiments performed in duplicates. […]
Cells in log growth were supplemented with fresh medium with either vehicle (control) or compound at the stated final concentrations. […] After 1 h incubation at room temperature in the dark, cells were analyzed on a FACScan (Becton and Dickinson) in CellQuest. The percentage of cells in each phase of the cell cycle was determined using ModFit software (Verity, http://www.vsh.com). Early and late apoptotic responses elicited by WEHI-7326 were assessed using Dead Cell Apoptosis Kit (ThermoFisher Scientific) with Annexin V FITC and PI following manufacturer’s instructions. Cells were incubated 24 h with 6-point, 4-fold titration of WEHI-7326, washed twice with cold 1X PBS, resuspended in 1X Annexin Binding Buffer, incubated with FITC Annexin V and PI for 15 mins at RT in the dark and subsequently analyzed by flow cytometry.
A general note: In flow cytometry, cells or beads pass a laser one at a time.

The test system of another test is 134183 HGSOC PDX. The experiment in a line: HGSOC PDX model 134183. Conditions: 134183 platinum-sensitive PDX; 20 mg/kg i.v. biweekly, 6 weeks. Format: in vivo, NSG mice. The procedure:
(§1) Two to three mm ovarian tumor fragments were subcutaneously engrafted in the left flank of NSG mice and monitored by physical palpation for tumor growth and engraftment. Engrafted tumors were measured twice a week using digital Vernier calipers and maximum tumor diameter + perpendicular tumor length were digitally recorded into the Study Director software (v 3.0/4.0 StudyLog). Tumor volume was calculated automatically (tumor volume (mm^3) = 0.5236 x [larger diameter (mm) x smaller diameter (mm)^2]). Mice were randomized to treatment once their tumor volume reach 180–300 mm^3 and tumor measurements were performed twice a week up to 120 days or when the tumor volume reaches 700 mm^3.
(§2) Time to progressive disease (PD): Defined as the time (in days) from beginning of treatment to an increase in average tumor volume of >20% from the nadir (taken as the smallest average tumor volume recorded since treatment started or 200 mm^3 if nadir was <200 mm^3 as lesions smaller than this are difficult to measure with accuracy). Median time to harvest (TTH): Defined as the time (in days) from the beginning of treatment to day of harvest at 700 mm^3 and the median TTH was calculated and plotted using Kaplan-Meier curves. Based on ref. [27]. […]

The next test deals with 34931 HGSOC PDX. Briefly: HGSOC post-chemo PDX model 34931. It counts as in vivo, NSG mice. Conditions: 34931 post-taxane, cisplatin-refractory PDX; 20 mg/kg i.v. twice a week, 6 weeks. On the procedure: as §1, §2

`COc1ccc(CNc2nc(NCc3ccc(CN)cc3)nc(NN3CC(=O)NC3=O)n2)cc1` [WEHI-7326]: the IC50 in the test on H1437 was found to be 29.7 ± 10.8 nM. In addition, the EC50 in the test on SW480 (Homo sapiens, SW480, read-out: EC50 (G2/M arrest)) was determined as 98 ± 10 nM. Moreover, the “G2/M cell cycle arrest” value with SW480 (SW480) is “strong G2/M cell cycle arrest”. Also, in the test on 134183 HGSOC PDX, the “Median time to harvest (TTH)” value is “lack of improvement” and the “Time to progressive disease (PD)” value is listed as 53 days. For the same molecule, in the test with 34931 HGSOC PDX, the Tumor response entry is recorded as “ineffective”.
